Laboratory results taken from ChEMBL document CHEMBL1122784, “Antitumor imidazotetrazines. 1. Synthesis and chemistry of 8-carbamoyl-3-(2-chloroethyl)imidazo[5,1-d]-1,2,3,5-tetrazin-4(3 H)-one , a novel broad-spectrum antitumor agent” (J Med Chem, 1984).

Experiments:
[1] = Half-life period in 95% ethanol in diffuse laboratory light at 28 degrees celsius.; format: ADME
[2] = Half-life period in phosphate buffer at pH 7.4 in the dark at 28 degrees celsius.; format: ADME
Mus musculus [3] = test: Compound was tested for mortality in L1210 leukemia implanted BDF1 mice on day 0 after ip administration of 10 mg/kg/day on days 1-5 out of 5 mice; format: functional; conditions: route intraperitoneal
Mus musculus [4] = test: Compound was evaluated for %T/C in L1210 leukemia implanted BDF1 mice on day 0 after ip administration of 20 mg/kg/day on days 1-5; format: functional; conditions: route intraperitoneal
Mus musculus [5] = test: Compound was evaluated for %T/C in L1210 leukemia implanted BDF1 mice on day 0 after ip administration of 40 mg/kg/day on day 1; format: functional; conditions: route intraperitoneal
Mus musculus [6] = test: Compound was evaluated for %T/C in L1210 leukemia implanted BDF1 mice on day 0 after ip administration of 50 mg/kg/day on day 1-9; format: functional; conditions: route intraperitoneal
Mus musculus [7] = test: Compound was evaluated for %T/C in L1210 leukemia implanted BDF1 mice on day 0 after ip administration of 6.25 mg/kg/day on day 1-9; format: functional; conditions: route intraperitoneal
Mus musculus [8] = test: Compound was evaluated for %T/C in L1210 leukemia implanted BDF1 mice on day 0 after ip administration of 80 mg/kg/day on day 1; format: functional; conditions: route intraperitoneal
Mus musculus [9] = test: Compound was evaluated for %T/C in P388 leukemia implanted BDF1 mice on day 0 after ip administration of 20 mg/kg/day on day 1-5; format: functional; conditions: route intraperitoneal
Mus musculus [10] = test: Compound was evaluated for %T/C in P388 leukemia implanted BDF1 mice on day 0 after ip administration of 40 mg/kg/day on day 1; format: functional; conditions: route intraperitoneal
Mus musculus [11] = test: Compound was evaluated for %T/C in P388 leukemia implanted BDF1 mice on day 0 after ip administration of 50 mg/kg/day on day 1-5; format: functional; conditions: route intraperitoneal
Mus musculus [12] = test: Compound was evaluated for %T/C in P388 leukemia implanted BDF1 mice on day 0 after ip administration of 5 mg/kg/day on day 1-5; format: functional; conditions: route intraperitoneal
Mus musculus [13] = test: Compound was evaluated for %T/C in P388 leukemia implanted BDF1 mice on day 0 after ip administration of 6.25 mg/kg/day on day 1-5; format: functional; conditions: route intraperitoneal
Mus musculus [14] = test: Compound was evaluated for number of survivors in L1210 leukemia implanted BDF1 mice on day 0 after ip administration of 2.5 mg/kg/day on day 60 out of 5 mice; format: functional; conditions: route intraperitoneal
Mus musculus [15] = test: Compound was evaluated for number of survivors in L1210 leukemia implanted BDF1 mice on day 0 after ip administration of 50 mg/kg/day on day 60 out of 6 mice; format: functional; conditions: route intraperitoneal
Mus musculus [16] = test: Compound was evaluated for number of survivors in L1210 leukemia implanted BDF1 mice on day 0 after ip administration of 6.25 mg/kg/day on day 60 out of 6 mice; format: functional; conditions: route intraperitoneal
Mus musculus [17] = test: Compound was tested for mortality in L1210 leukemia implanted BDF1 mice on day 0 after ip administration of 20 mg/kg/day on day 1 out of 5 mice; format: functional; conditions: route intraperitoneal
Mus musculus [18] = test: Compound was evaluated for %T/C in L1210 leukemia implanted BDF1 mice on day 0 after ip administration of 3.12 mg/kg/day on day 1-9; format: functional; conditions: route intraperitoneal
Mus musculus [19] = test: Compound was evaluated for %T/C in L1210 leukemia implanted BDF1 mice on day 0 after ip administration of 10 mg/kg/day on day 1-5; format: functional; conditions: route intraperitoneal
Mus musculus [20] = test: Compound was evaluated for %T/C in L1210 leukemia implanted BDF1 mice on day 0 after ip administration of 12.5 mg/kg/day on day 1-9; format: functional; conditions: route intraperitoneal
Mus musculus [21] = test: Compound was evaluated for %T/C in L1210 leukemia implanted BDF1 mice on day 0 after ip administration of 2.5 mg/kg/day on day 1-5; format: functional; conditions: route intraperitoneal
Mus musculus [22] = test: Compound was tested for mortality in P388 leukemia implanted BDF1 mice on day 0 after ip administration of 12.5 mg/kg/day on day 1-5 out of 6 mice; format: functional; conditions: route intraperitoneal
Mus musculus [23] = test: Compound was tested for mortality in P388 leukemia implanted BDF1 mice on day 0 after ip administration of 20 mg/kg/day on day 1-5 out of 5 mice; format: functional; conditions: route intraperitoneal
Mus musculus [24] = test: Compound was tested for mortality in P388 leukemia implanted BDF1 mice on day 0 after ip administration of 50 mg/kg/day on day 1-5 out of 6 mice; format: functional; conditions: route intraperitoneal
Mus musculus [25] = test: Compound was tested for mortality in P388 leukemia implanted BDF1 mice on day 0 after ip administration of 5 mg/kg/day on day 1-5 out of 5 mice; format: functional; conditions: route intraperitoneal
Mus musculus [26] = test: Compound was tested for mortality in P388 leukemia implanted BDF1 mice on day 0 after ip administration of 6.25 mg/kg/day on day 1-5 out of 6 mice; format: functional; conditions: route intraperitoneal
Mus musculus [27] = test: Compound was tested for mortality in P388 leukemia implanted BDF1 mice on day 0 after ip administration of 7.5 mg/kg/day on day 1-5 out of 5 mice; format: functional; conditions: route intraperitoneal
Mus musculus [28] = test: Compound was tested for mortality in L1210 leukemia implanted BDF1 mice on day 0 after ip administration of 3.12 mg/kg/day on day 1-9 out of 6 mice; format: functional; conditions: route intraperitoneal
Mus musculus [29] = test: Compound was tested for mortality in L1210 leukemia implanted BDF1 mice on day 0 after ip administration of 40 mg/kg/day on day 1 out of 5 mice; format: functional; conditions: route intraperitoneal
Mus musculus [30] = test: Compound was tested for mortality in L1210 leukemia implanted BDF1 mice on day 0 after ip administration of 5 mg/kg/day on day 1-5 out of 5 mice; format: functional; conditions: route intraperitoneal
Mus musculus [31] = test: Compound was tested for mortality in P388 leukemia implanted BDF1 mice on day 0 after ip administration of 10 mg/kg/day on day 1 out of 5 mice; format: functional; conditions: route intraperitoneal
Mus musculus [32] = test: Compound was evaluated for number of survivors in L1210 leukemia implanted BDF1 mice on day 0 after ip administration of 7.5 mg/kg/day on day 60 out of 5 mice; format: functional; conditions: route intraperitoneal
Mus musculus [33] = test: Compound was evaluated for number of survivors in L1210 leukemia implanted BDF1 mice on day 0 after ip administration of 80 mg/kg/day on day 60 out of 5 mice; format: functional; conditions: route intraperitoneal
Mus musculus [34] = test: Compound was evaluated for number of survivors in P388 leukemia implanted BDF1 mice on day 0 after ip administration of 12.5 mg/kg/day on day 60 out of 6 mice; format: functional; conditions: route intraperitoneal
Mus musculus [35] = test: Compound was evaluated for number of survivors in P388 leukemia implanted BDF1 mice on day 0 after ip administration of 40 mg/kg/day on day 60 out of 5 mice; format: functional; conditions: route intraperitoneal
Mus musculus [36] = test: Compound was evaluated for number of survivors in P388 leukemia implanted BDF1 mice on day 0 after ip administration of 50 mg/kg/day on day 60 out of 5 mice; format: functional; conditions: route intraperitoneal
Mus musculus [37] = test: Compound was evaluated for number of survivors in P388 leukemia implanted BDF1 mice on day 0 after ip administration of 6.25 mg/kg/day on day 60 out of 6 mice; format: functional; conditions: route intraperitoneal
Mus musculus [38] = test: Compound was evaluated for number of survivors in P388 leukemia implanted BDF1 mice on day 0 after ip administration of 7.5 mg/kg/day on day 60 out of 5 mice; format: functional; conditions: route intraperitoneal
Mus musculus [39] = test: Compound was evaluated for number of survivors in P388 leukemia implanted BDF1 mice on day 0 after ip administration of 80 mg/kg/day on day 60 out of 5 mice; format: functional; conditions: route intraperitoneal

`NC(=O)c1ncn2c(=O)n(CCCl)nnc12` [MITOZOLOMIDE] gave a half-life [1] of 1.17 h, a half-life [2] of 1.63 h and a Mortality (Mus musculus [3]) of 0. For the same compound, the T/C (Mus musculus [4]) was >577%, the T/C (Mus musculus [5]) was >740% and the T/C (Mus musculus [6]) was 137%. The T/C (Mus musculus [7]) was 184%, the T/C (Mus musculus [8]) was 177% and the T/C (Mus musculus [9]) was >555%. For the same compound, the T/C (Mus musculus [10]) was >600%, the T/C (Mus musculus [11]) was 153% and the T/C (Mus musculus [12]) was 277%. For the same compound, the T/C (Mus musculus [13]) was 180%, the Survivors (Mus musculus [14]) was 0 and the Survivors (Mus musculus [15]) was 0. The Survivors (Mus musculus [16]) was 0, the Mortality (Mus musculus [17]) was 0 and the T/C (Mus musculus [18]) was 147%. The T/C (Mus musculus [19]) was >577%, the T/C (Mus musculus [20]) was >745% and the T/C (Mus musculus [21]) was 112%. For the same compound, the Mortality (Mus musculus [22]) was 0, the Mortality (Mus musculus [23]) was 0 and the Mortality (Mus musculus [24]) was 0. For the same compound, the Mortality (Mus musculus [25]) was 0, the Mortality (Mus musculus [26]) was 1 and the Mortality (Mus musculus [27]) was 0. The Mortality (Mus musculus [28]) was 0, the Mortality (Mus musculus [29]) was 0 and the Mortality (Mus musculus [30]) was 0. For the same compound, the Mortality (Mus musculus [31]) was 0, the Survivors (Mus musculus [32]) was 0 and the Survivors (Mus musculus [33]) was 0. It also gave a Survivors (Mus musculus [34]) of 1, a Survivors (Mus musculus [35]) of 5 and a Survivors (Mus musculus [36]) of 0. The Survivors (Mus musculus [37]) was 0, the Survivors (Mus musculus [38]) was 5 and the Survivors (Mus musculus [39]) was 0.
